Structures can show the parent of a compound that is named as a salt. Where two headings read alike, the source gives them in different places.
Molecular target: T1, His6-AspH315–758 (human aspartate/asparagine-β-hydroxylase, AspH) (Homo sapiens, UniProt Q12797)
T1 construct: N-Terminally His6-tagged human AspH315–758 (His6-AspH315–758) was produced in E. coli BL21 (DE3) cells; made in house; host or cells: E. coli BL21 (DE3), pET-28a(+) vector
T1 sequence (Q12797 315-758): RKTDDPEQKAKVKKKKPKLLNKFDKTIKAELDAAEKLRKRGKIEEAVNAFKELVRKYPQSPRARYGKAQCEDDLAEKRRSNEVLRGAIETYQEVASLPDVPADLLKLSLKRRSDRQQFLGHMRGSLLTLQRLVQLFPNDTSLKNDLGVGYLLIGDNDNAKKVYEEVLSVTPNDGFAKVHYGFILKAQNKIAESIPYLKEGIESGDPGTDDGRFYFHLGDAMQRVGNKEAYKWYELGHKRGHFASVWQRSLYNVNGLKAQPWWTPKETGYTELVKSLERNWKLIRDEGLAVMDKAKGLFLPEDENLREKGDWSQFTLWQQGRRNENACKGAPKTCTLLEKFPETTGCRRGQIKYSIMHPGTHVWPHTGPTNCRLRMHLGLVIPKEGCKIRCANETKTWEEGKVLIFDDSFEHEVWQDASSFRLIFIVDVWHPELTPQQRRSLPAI
Test: SPE-MS AspH inhibition assay (LOPAC screen at fixed 20 μM and IC50 dose-response), hydroxylation of cyclic peptide hFX-CP101–119
Format: biochemical

[1] = LOPAC compound at fixed 20 uM, plate 1, normalised to DMSO and 2,4-PDCA controls
[2] = LOPAC compound at fixed 20 uM, substrate conversion, plate 1
[3] = LOPAC compound at 20uM, plate 2, conversion of substrate peptide
[4] = LOPAC compound at 20uM, plate 2, normalised to DMSO and 2,4-PDCA controls
[5] = LOPAC Plate 4, compound at 20 uM
[6] = LOPAC Plate 4, compound at 20 uM, substrate conversion
[7] = LOPAC compound at 20uM, plate 3, conversion of substrate peptide

Structure (SMILES): Nc1ncn([C@@H]2O[C@H](CO)[C@@H](O)[C@H]2O)c(=O)n1 [5-azacytidine]
- Plate 1 (% inhibition) [1]: 7.60%
- Plate 1 (% conversion) [2]: 33.32%

Structure (SMILES): C[C@H]1O[C@@H](n2cc(F)c(=O)[nH]c2=O)[C@H](O)[C@@H]1O [5-fluoro-5-deoxyuridine]
- Plate 2 (% conversion) [3]: 36.33%
- Plate 2 (% inhibition) [4]: -1.12%

Structure (SMILES): CCCCCC(O)CCCC(=O)O.[Na] (centres unmarked) [5-hydroxydecanoic acid sodium]
- Plate 2 (% conversion) [3]: 36.96%
- Plate 2 (% inhibition) [4]: -3.01%

Structure (SMILES): CC(C)c1cccc(C(C)C)c1N1C(=O)c2ccc(O)cc2C1=O [5HPP-33]
- % conversion: 25.79%

Structure (SMILES): CC(=O)[C@H]1CC[C@H]2[C@@H]3CC[C@H]4C[C@H](O)CC[C@]4(C)[C@H]3C(=O)C[C@]12C [5alpha-Pregnan-3alpha-ol-11,20-dione]
- Plate 3 (% conversion): 35.35%

Structure (SMILES): CC(=O)[C@H]1CC[C@H]2[C@@H]3CC[C@H]4C[C@H](O)CC[C@]4(C)[C@H]3CC[C@]12C [5alpha-Pregnan-3alpha-ol-20-one]
- % conversion: 26.94%

Structure (SMILES): O=c1[nH]c2ccccc2c2ccccc12 [6(5H)-Phenanthridinone]
- % inhibition [5]: -0.0747%
- % conversion [6]: 36.50%

Structure (SMILES): NCCCCCC(=O)O [6-Aminohexanoic acid]
- Plate 1 (% inhibition) [1]: -0.76%
- Plate 1 (% conversion) [2]: 36.13%

Structure (SMILES): COc1cc2c(CCNC(C)=O)c[nH]c2cc1O [6-Hydroxymelatonin]
- Plate 2 (% conversion) [3]: 36.89%
- Plate 2 (% inhibition) [4]: -2.79%

Structure (SMILES): CCCCCCCCCCC/C=C\C(C)(C)/C=C\CCCC(=O)O [7,7-Dimethyl-(5Z,8Z)-eicosadienoic acid]
- Plate 2 (% conversion) [3]: 5.42%
- Plate 2 (% inhibition) [4]: 91.20%

Structure (SMILES): O.O=c1cc(-c2ccccc2)oc2c(O)c(O)ccc12 [7,8-Dihydroxyflavone hydrate, reference compound]
- % conversion: 2.70%
- inhibition at 20 µM: 99%
- inhibition at 20 µM (read-out: Inhibition at 20 µM [%]): 99%

Structure (SMILES): O=[N+]([O-])c1cccc2cn[nH]c12 [7-Nitroindazole]
- Plate 3 (% conversion) [7]: 35.80%

Structure (SMILES): Cn1c(=O)c2c(nc(C=Cc3cccc(Cl)c3)n2C)n(C)c1=O [8-(3-Chlorostyryl)caffeine]
- Plate 2 (% conversion): 38.57%
- Plate 2 (% inhibition) (20 µM): -7.82%

Structure (SMILES): Cn1c(=O)c2[nH]c(-c3ccc(S(=O)(=O)O)cc3)nc2n(C)c1=O [8-(p-Sulfophenyl)theophylline]
- Plate 1 (% inhibition) [1]: 51.62%
- Plate 1 (% conversion) [2]: 18.54%

Structure (SMILES): Nc1nc2c(nc(Br)n2[C@@H]2O[C@@H]3COP(=O)([O-])O[C@H]3[C@H]2O)c(=O)[nH]1.[Na+] [8-Bromo-cGMP sodium]
- Plate 1 (% inhibition) [1]: 5.25%
- Plate 1 (% conversion) [2]: 34.11%

Structure (SMILES): Cn1c(=O)c2[nH]c(C3CCCC3)nc2n(C)c1=O [8-Cyclopentyl-1,3-dimethylxanthine]
- Plate 2 (% conversion) [3]: 36.70%
- Plate 2 (% inhibition) [4]: -2.21%

Structure (SMILES): CCCn1c(=O)c2[nH]c(C3CCCC3)nc2n(CCC)c1=O [8-Cyclopentyl-1,3-dipropylxanthine]
- Plate 2 (% conversion): 38.65%
- Plate 2 (% inhibition) (20 µM): -8.06%

Structure (SMILES): Nc1ncnc2c1ncn2C1CCCC1 [9-cyclopentyladenine]
- Plate 1 (% inhibition) [1]: 2.94%
- Plate 1 (% conversion) [2]: 34.88%

Structure (SMILES): CC1=C(/C=C/C(C)=C/C=C/C(C)=C\C(=O)O)C(C)(C)CCC1 [13-cis-retinoic acid]
- % conversion [6]: 23.26%

Structure (SMILES): N[C@H](C(=O)O)[C@H]1C[C@@H]1C(=O)O [(2S,1S,2S)-2-(carboxycyclopropyl)glycine]
- Plate 2 (% conversion) [3]: 32.34%
- Plate 2 (% inhibition) [4]: 10.80%

Structure (SMILES): CC(C)C[C@H]1C(=O)N2CCC[C@H]2[C@]2(O)O[C@](NC(=O)[C@@H]3C=C4c5cccc6[nH]c(Br)c(c56)C[C@H]4N(C)C3)(C(C)C)C(=O)N12.CS(=O)(=O)O [(+)-Bromocriptine methanesulfonate]
- Plate 1 (% conversion): 29.77%
- Plate 1 (% inhibition): 18.18%

Structure (SMILES): CN(C)CC[C@@H](c1ccc(Br)cc1)c1ccccn1 [(+)-Brompheniramine maleate]
- Plate 1 (% inhibition) [1]: 1.01%
- Plate 1 (% conversion) [2]: 35.53%

Structure (SMILES): CN(C)CC[C@@H](c1ccc(Cl)cc1)c1ccccn1 [(+)-Chlorpheniramine maleate]
- Plate 1 (% inhibition) [1]: -13.88%
- Plate 1 (% conversion) [2]: 40.53%

Structure (SMILES): N[C@@H](Cn1oc(=O)[nH]c1=O)C(=O)O [(+)-Quisqualic acid]
- % conversion: 34.23%

Structure (SMILES): CN1C(=O)CC[C@H]1c1cccnc1 [(-)-Cotinine]
- Plate 1 (% conversion): 36.85%
- Plate 1 (% inhibition): -2.91%

Structure (SMILES): CN1CC[C@@]2(C)c3cc(O)ccc3N(C)[C@@H]12.O=C(O)/C=C/C(=O)O [(-)-Eseroline fumarate]
- Plate 2 (% conversion): 19.71%
- Plate 2 (% inhibition) (20 µM): 48.52%

Structure (SMILES): C[C@@]12N[C@@H](Cc3ccccc31)c1ccccc12.O=C(O)/C=C\C(=O)O [(-)-MK-801 hydrogen maleate]
- Plate 3 (% conversion): 36.17%

Structure (SMILES): C=C(C)[C@H]1CC=C(C(=O)O)CC1 [(-)-Perillic acid]
- % conversion [6]: 29.82%

Structure (SMILES): C[N+]1(C)[C@@H]2C[C@@H](OC(=O)[C@H](CO)c3ccccc3)C[C@H]1[C@@H]1O[C@@H]12 [(-)-Scopolamine methyl bromide]
- % conversion: 37.79%

Structure (SMILES): CCN1CCC[C@H]1CNC(=O)c1cc(S(N)(=O)=O)ccc1OC [(-)-Sulpiride]
- % conversion [6]: 32.10%

Structure (SMILES): Cl.c1ccc([C@H]2CN3CCSC3=N2)cc1 [(-)-Tetramisole hydrochloride]
- Plate 3 (% conversion): 32.10%

Structure (SMILES): NC/C=C/C(=O)O [(E)-4-amino-2-butenoic acid]
- % inhibition [5]: 0.14%
- % conversion [6]: 36.42%

Structure (SMILES): C[C@](N)(CCP(=O)(O)O)C(=O)O.Cl [(S)-MAP4 hydrochloride]
- Plate 3 (% conversion) [7]: 32.97%

Structure (SMILES): CC(C)NC[C@H](O)COc1cccc2ccccc12 [(S)-Propranolol hydrochloride]
- % conversion [6]: 27.07%

Structure (SMILES): Cl.NCCNS(=O)(=O)c1cccc2c(Cl)cccc12 [A3 hydrochloride]
- % conversion: 25.50%

Structure (SMILES): Cl.NC[C@@H]1O[C@H](c2ccccc2)Cc2c1ccc(O)c2O [A-68930 hydrochloride]
- % inhibition [5]: 78.36%
- % conversion [6]: 9.73%

Structure (SMILES): Cl.NC[C@@H]1O[C@H](C23CC4CC(CC(C4)C2)C3)Cc2c1ccc(O)c2O [A-77636 hydrochloride]
- Plate 1 (% conversion): 15.05%
- Plate 1 (% inhibition): 62.00%

Structure (SMILES): CCS(=O)(=O)Nc1cccc(C(=C2CCCCC2)c2cnc[nH]2)c1 [A-315456]
- Plate 1 (% conversion): 40.98%
- Plate 1 (% inhibition): -15.20%

Structure (SMILES): CC1=C(C)C(=O)C(CCCCC#CCCCC#CCO)=C(C)C1=O [AA-861]
- Plate 1 (% inhibition) [1]: -23.70%
- Plate 1 (% conversion) [2]: 43.83%

Structure (SMILES): CNC(=O)[C@H]1O[C@@H](n2cnc3c(NCc4ccc(N)cc4)ncnc32)[C@H](O)[C@@H]1O [AB-MECA]
- Plate 1 (% inhibition) [1]: -6.25%
- Plate 1 (% conversion) [2]: 37.97%

Structure (SMILES): Cc1cc([C@@H]2CCCN2C)on1.Cl [ABT-418 hydrochloride]
- Plate 1 (% conversion): 35.68%
- Plate 1 (% inhibition): 0.56%

Structure (SMILES): CCCCCCCCc1ccc(-c2ccc(C(=O)O)cc2)cc1 [AC-55649]
- % conversion: 33.36%
- % inhibition (20 µM): 9.11%

Structure (SMILES): CC[n+]1c(/C=C/C=C2/N(C)c3ccccc3C2(C)C)sc2ccccc21.[I-] [AC-93253 iodide]
- Plate 2 (% conversion): 41.62%
- Plate 2 (% inhibition) [4]: -16.93%

Structure (SMILES): NS(=O)(=O)c1nn2cc(-c3ccccc3)nc2s1 [AEG 3482]
- Plate 3 (% conversion): 35.73%

Structure (SMILES): N#C/C(=C\c1ccc(-c2cc(Cl)ccc2Cl)o1)C(=O)Nc1cccc2ncccc12 [AGK2]
- % conversion [6]: 36.60%

Structure (SMILES): NC1(C(=O)O)CCc2cc(C(=O)O)ccc21 (centres unmarked) [AIDA]
- Plate 1 (% inhibition) [1]: 3.11%
- Plate 1 (% conversion) [2]: 34.83%

Structure (SMILES): CC(C)(C)c1ccc(/C=C/C(=O)Nc2ccc3c(c2)OCCO3)cc1 [AMG 9810]
- % inhibition [5]: 5.34%
- % conversion [6]: 34.65%

Structure (SMILES): O=C(Nc1ccccc1C(=O)NC1CCCCNC1=O)c1cc2ccccc2s1 (centres unmarked) [ANA-12]
- % conversion [6]: 32.70%

Structure (SMILES): CCN(CC)c1ncnc2c1ncn2[C@@H]1O[C@H](COP(=O)([O-])OP(=O)([O-])C(Br)(Br)P(=O)([O-])O)[C@@H](O)[C@H]1O.[Na+].[Na+].[Na+] [ARL 67156 trisodium salt]
- Plate 1 (% inhibition) [1]: 82.09%
- Plate 1 (% conversion) [2]: 8.30%

Structure (SMILES): O=C(N/N=C/c1c(O)ccc2ccccc12)c1ccncc1 [AS-8351, reference compound]
- IC50 (50 nM His6-AspH315–758, 1.0 μM hFX-CP101–119, 3 μM 2OG, 2 μM Fe(II), 50 mM HEPES pH 7.5, 20 °C, mean ± SD, n = 2 (2,4-PDCA n = 10), read-out: IC50): 3.07 ± 0.43 µM

Structure (SMILES): O=C1NC(=O)/C(=C/c2ccc(-c3ccc(F)cc3O)o2)S1 [AS-252424]
- Plate 1 (% inhibition) [1]: -9.30%
- Plate 1 (% conversion) [2]: 39.00%

Structure (SMILES): CC(C)(C)c1o[nH]c(=O)c1CC(N)C(=O)O (centres unmarked) [ATPA]
- Plate 1 (% conversion): 36.48%
- Plate 1 (% inhibition): -1.82%

Structure (SMILES): CC(=O)c1ccc2c(c1)N(CCCN(C)C)c1ccccc1S2 [Acepromazine maleate]
- % conversion [6]: 29.56%

Structure (SMILES): CC(N)=O [Acetamide]
- Plate 1 (% inhibition) [1]: 0.92%
- Plate 1 (% conversion) [2]: 35.56%

Structure (SMILES): CC(=O)Nc1nnc(S(N)(=O)=O)s1 [Acetazolamide]
- Plate 1 (% inhibition) [1]: 9.71%
- Plate 1 (% conversion) [2]: 32.61%

— publication PMC7251097, “Aspartate/asparagine-β-hydroxylase: a high-throughput mass spectrometric assay for discovery of small molecule inhibitors” (Scientific Reports, 2020)
